Source: PubChem BioAssay AID1259407 (Chemical Carcinogenesis Research Information System (CCRIS), 2018)
Calls of active or inactive are those of the source. How the calls were made is not given here.

Tested on: CCRIS mutagenicity, Ames/micronucleus/aberration tests
Assay: CCRIS mutagenicity studies
[1] = Test System: AMES SALMONELLA TYPHIMURIUM, Strain/Indicator: TA98, Metabolic Activation: NONE, Method: PREINCUBATION
[2] = Test System: AMES SALMONELLA TYPHIMURIUM, Strain/Indicator: TA100, Metabolic Activation: NONE, Method: PREINCUBATION
[3] = Test System: AMES SALMONELLA TYPHIMURIUM, Strain/Indicator: TA1535, Metabolic Activation: NONE, Method: PREINCUBATION
[4] = Test System: AMES SALMONELLA TYPHIMURIUM, Strain/Indicator: TA1537, Metabolic Activation: NONE, Method: PREINCUBATION
[5] = Test System: AMES SALMONELLA TYPHIMURIUM, Strain/Indicator: TA100, Metabolic Activation: NONE, Method: STANDARD PLATE
[6] = Test System: AMES SALMONELLA TYPHIMURIUM, Strain/Indicator: TA97, Metabolic Activation: NONE, Method: PREINCUBATION
[7] = Test System: AMES SALMONELLA TYPHIMURIUM, Strain/Indicator: TA97, Metabolic Activation: RAT, LIVER, S-9, AROCLOR 1254, Method: PREINCUBATION
[8] = Test System: AMES SALMONELLA TYPHIMURIUM, Strain/Indicator: TA102, Metabolic Activation: NONE, Method: PREINCUBATION
[9] = Test System: AMES SALMONELLA TYPHIMURIUM, Strain/Indicator: TA102, Metabolic Activation: RAT, LIVER, S-9, AROCLOR 1254, Method: PREINCUBATION

With `CN(C)CCN(Cc1ccccc1)c1ccccc1` the mutagenic call (Test System: AMES SALMONELLA TYPHIMURIUM, Strain/Indicator: TA98, Metabolic Activation: HAMSTER, LIVER, S-9, AROCLOR 1254 (10%), Method: PREINCUBATION) was “inactive; negative”, the mutagenic call [1] was “inactive; negative” and the mutagenic call (Test System: AMES SALMONELLA TYPHIMURIUM, Strain/Indicator: TA98, Metabolic Activation: RAT, LIVER, S-9, AROCLOR 1254 (10%), Method: PREINCUBATION) was “inactive; negative”. For the same compound, the mutagenic call (Test System: AMES SALMONELLA TYPHIMURIUM, Strain/Indicator: TA100, Metabolic Activation: HAMSTER, LIVER, S-9, AROCLOR 1254 (10%), Method: PREINCUBATION) was “inactive; negative”, the mutagenic call [2] was “inactive; negative” and the mutagenic call (Test System: AMES SALMONELLA TYPHIMURIUM, Strain/Indicator: TA100, Metabolic Activation: RAT, LIVER, S-9, AROCLOR 1254 (10%), Method: PREINCUBATION) was “inactive; negative”. For the same compound, the mutagenic call (Test System: AMES SALMONELLA TYPHIMURIUM, Strain/Indicator: TA1535, Metabolic Activation: HAMSTER, LIVER, S-9, AROCLOR 1254 (10%), Method: PREINCUBATION) was “inactive; negative”, the mutagenic call [3] was “inactive; negative” and the mutagenic call (Test System: AMES SALMONELLA TYPHIMURIUM, Strain/Indicator: TA1535, Metabolic Activation: RAT, LIVER, S-9, AROCLOR 1254 (10%), Method: PREINCUBATION) was “inactive; negative”. For the same compound, the mutagenic call (Test System: AMES SALMONELLA TYPHIMURIUM, Strain/Indicator: TA1537, Metabolic Activation: HAMSTER, LIVER, S-9, AROCLOR 1254 (10%), Method: PREINCUBATION) was “inactive; negative”, the mutagenic call [4] was “inactive; negative” and the mutagenic call (Test System: AMES SALMONELLA TYPHIMURIUM, Strain/Indicator: TA1537, Metabolic Activation: RAT, LIVER, S-9, AROCLOR 1254 (10%), Method: PREINCUBATION) was “inactive; negative”.
With `O=C(O)C1OC1C(=O)O` (stereo not given) the mutagenic call [5] was “inactive; negative”, the mutagenic call (Test System: AMES SALMONELLA TYPHIMURIUM, Strain/Indicator: TA100, Metabolic Activation: RAT, LIVER, S-9, AROCLOR 1254, Method: STANDARD PLATE) was “inactive; negative” and the mutagenic call (Test System: AMES SALMONELLA TYPHIMURIUM, Strain/Indicator: TA1535, Metabolic Activation: NONE, Method: STANDARD PLATE) was “inactive; negative”. For the same compound, the mutagenic call (Test System: AMES SALMONELLA TYPHIMURIUM, Strain/Indicator: TA1535, Metabolic Activation: RAT, LIVER, S-9, AROCLOR 1254, Method: STANDARD PLATE) was “inactive; negative” and the mutagenic call (Test System: UDS RAT HEPATOCYTES, Strain/Indicator: THY INCORP, Metabolic Activation: NONE) was “inactive; negative”.
With `c1cnc2c3c(ccc2c1)CC[C@H]1O[C@@H]31` the mutagenic call [5] was “active; positive”.
`O=C(O)CC(O)(CC(=O)O)C(=O)O` was tested, and the mutagenic call [6] was “inactive; negative”, the mutagenic call (Test System: AMES SALMONELLA TYPHIMURIUM, Strain/Indicator: TA97, Metabolic Activation: NONE, Method: STANDARD PLATE) was “inactive; negative” and the mutagenic call [7] was “inactive; negative”. The mutagenic call (Test System: AMES SALMONELLA TYPHIMURIUM, Strain/Indicator: TA97, Metabolic Activation: RAT, LIVER, S-9, PHENOBARBITAL, Method: STANDARD PLATE) was “inactive; negative”, the mutagenic call (Test System: AMES SALMONELLA TYPHIMURIUM, Strain/Indicator: TA97, Metabolic Activation: S-9, Method: PREINCUBATION) was “inactive; negative” and the mutagenic call (Test System: AMES SALMONELLA TYPHIMURIUM, Strain/Indicator: TA98, Metabolic Activation: NONE, Method: STANDARD PLATE) was “inactive; negative”. For the same compound, the mutagenic call (Test System: AMES SALMONELLA TYPHIMURIUM, Strain/Indicator: TA98, Metabolic Activation: RAT, LIVER, S-9, PHENOBARBITAL, Method: STANDARD PLATE) was “inactive; negative”, the mutagenic call [5] was “inactive; negative” and the mutagenic call (Test System: AMES SALMONELLA TYPHIMURIUM, Strain/Indicator: TA100, Metabolic Activation: RAT, LIVER, S-9, PHENOBARBITAL, Method: STANDARD PLATE) was “inactive; negative”. For the same compound, the mutagenic call [8] was “inactive; negative”, the mutagenic call [9] was “inactive; negative” and the mutagenic call (Test System: AMES SALMONELLA TYPHIMURIUM, Strain/Indicator: TA102, Metabolic Activation: S-9, Method: PREINCUBATION) was “inactive; negative”. The mutagenic call (Test System: AMES SALMONELLA TYPHIMURIUM, Strain/Indicator: TA104, Metabolic Activation: NONE, Method: STANDARD PLATE) was “inactive; negative” and the mutagenic call (Test System: AMES SALMONELLA TYPHIMURIUM, Strain/Indicator: TA104, Metabolic Activation: RAT, LIVER, S-9, PHENOBARBITAL, Method: STANDARD PLATE) was “inactive; negative”.
With `O=[N+]([O-])c1ccc2sncc2c1` the mutagenic call [5] was “active; positive”.
In the case of `O=c1[nH]c(=O)n([C@H]2C[C@H](O)[C@@H](CO)O2)cc1CCCCl`, the mutagenic call [6] is reported as “inactive; negative”, the mutagenic call [7] is reported as “inactive; negative” and the mutagenic call [1] is reported as “inactive; negative”. For the same compound, the mutagenic call (Test System: AMES SALMONELLA TYPHIMURIUM, Strain/Indicator: TA98, Metabolic Activation: RAT, LIVER, S-9, AROCLOR 1254, Method: PREINCUBATION) was “inactive; negative”, the mutagenic call [2] was “inactive; negative” and the mutagenic call (Test System: AMES SALMONELLA TYPHIMURIUM, Strain/Indicator: TA100, Metabolic Activation: RAT, LIVER, S-9, AROCLOR 1254, Method: PREINCUBATION) was “inactive; negative”. The mutagenic call [8] was “inactive; negative”, the mutagenic call [9] was “inactive; negative” and the mutagenic call (Test System: AMES SALMONELLA TYPHIMURIUM, Strain/Indicator: TA104, Metabolic Activation: NONE, Method: PREINCUBATION) was “inactive; negative”. For the same compound, the mutagenic call (Test System: AMES SALMONELLA TYPHIMURIUM, Strain/Indicator: TA104, Metabolic Activation: RAT, LIVER, S-9, AROCLOR 1254, Method: PREINCUBATION) was “inactive; negative”, the mutagenic call [3] was “inactive; negative” and the mutagenic call (Test System: AMES SALMONELLA TYPHIMURIUM, Strain/Indicator: TA1535, Metabolic Activation: RAT, LIVER, S-9, AROCLOR 1254, Method: PREINCUBATION) was “inactive; negative”. The mutagenic call [4] was “inactive; negative”, the mutagenic call (Test System: AMES SALMONELLA TYPHIMURIUM, Strain/Indicator: TA1537, Metabolic Activation: RAT, LIVER, S-9, AROCLOR 1254, Method: PREINCUBATION) was “inactive; negative” and the mutagenic call (Test System: AMES SALMONELLA TYPHIMURIUM, Strain/Indicator: TA1538, Metabolic Activation: NONE, Method: PREINCUBATION) was “inactive; negative”. The mutagenic call (Test System: AMES SALMONELLA TYPHIMURIUM, Strain/Indicator: TA1538, Metabolic Activation: RAT, LIVER, S-9, AROCLOR 1254, Method: PREINCUBATION) was “inactive; negative” and the mutagenic call (Test System: CHINESE HAMSTER V-79, Strain/Indicator: V-79/8-AZAGUANINE, Metabolic Activation: NONE) was “inactive; negative”.
